Converted amounts (≈) assume the structure as drawn.
How the values were obtained:
Candida albicans = test: Robotic MIC assay with asthma/COPD medicaments (Example 5); assay type: cell-based; conditions: Mueller-Hinton broth; for MIC values: 24 hours
Experimental: (§1) A robotic MIC Assay was performed as follows. OligoG CF-5/20 were dissolved in medium (Mueller-Hinton broth or M19 broth depending on experiment) to 1.25 times of the desired assay concentrations (2, 6 and 10%). The antifungal agents under test were dissolved in medium without OligoG CF-5/20 and in medium with OligoG CF-5/20 at a concentration of 1.25 times the highest desired assay concentrations. For experiments where the effect of adding different concentrations of Na^+ was investigated, NaCl was dissolved in medium to the desired concentrations (10, 30 and 50 mM).
(§2) Two-fold serial dilutions of antifungal agents were made in medium with different concentrations of OligoG CF-5/20, and the solutions were placed in four parallel wells in Nunc 384-well micro plates (30 μl per well in Nunc 242757 microplates). A group of 8 wells with no addition of antifungal agents for each OligoG CF-5/20 concentration was included on each microplate as growth reference. To each well in the 384-well assay plates was added 7.5 μl of medium inoculated with a frozen stock culture of Candida albicans (strain CCUG 39343).
(§3) The micro plates were placed in plastic bags and incubated without shaking at 34° C. The optical density at 600 nm in the microwells was measured after approximately 13, 18, 24 and 34 hours of incubation, and the relative growth yield in each well was calculated based on the growth in the reference groups.
The robotic assay described in Example 1 was employed in this Example. […] The concentration utilized for the different components were based on information from Manocha et al. (2006).
In this assay only Mueller-Hinton broth was used since this is the medium specified for standardized MIC assays (Jorgensen et al., 1999).

[1] = test system: Candida albicans, CCUG 39343; test: Robotic MIC assay (Example 1); assay type: cell-based; conditions: for Minimum Inhibitory Concentration (MIC): 24 hours; for reduction in MIC values: comparing 0 and 10% G-block
Experimental: as §1, §2
The frozen stock culture was prepared by growing the Candida strain at 34° C. for 48 h on YM-agar. 1-3 colonies from the plates were grown in 6 ml YM-broth at 34° C. for 14 h before freezing in 6% glycerol at −80° C. Each batch of frozen stock culture was then characterized in separate growth experiments using Mueller-Hinton or M19 broth to determine the minimum amount of inoculum giving satisfactory growth after 48 h under the conditions relevant for the MIC assay. This inoculation procedure is used in order to reduce day to day variation in bioassays.
as §3

C[C@@H]1[C@H](O)[C@@H](C)/C=C/C=C/CC/C=C/C=C/C=C/C=C/C(O[C@H]2O[C@H](C)[C@@H](O)[C@H](N)[C@@H]2O)CC2O[C@](O)(CC(O)C(O)CCC(O)CC(O)CC(O)CC(=O)O[C@H]1C)CC(O)C2C(=O)O (some centres unmarked) [Nystatin, nystatin]
reduction in MIC values (Candida albicans; addition of 10% OligoG CF-5/20 compared to without OligoG CF-5/20): 4 × | MIC values (Candida albicans; no medicament added, G-block 0%): 2 µg/mL (≈ 2.16 µM) | MIC values (Candida albicans; no medicament added, G-block 2%): 2 µg/mL (≈ 2.16 µM) | MIC values (Candida albicans; no medicament added, G-block 6%): 1 µg/mL (≈ 1.08 µM) | MIC values (Candida albicans; no medicament added, G-block 10%): 0.5 µg/mL (≈ 0.54 µM) | MIC values (Candida albicans; with Budesonide 0.01 mM, G-block 0%): 4 µg/mL (≈ 4.32 µM) | MIC values (Candida albicans; with Budesonide 0.01 mM, G-block 2%): 4 µg/mL (≈ 4.32 µM) | MIC values (Candida albicans; with Budesonide 0.01 mM, G-block 6%): 2 µg/mL (≈ 2.16 µM) | MIC values (Candida albicans; with Budesonide 0.01 mM, G-block 10%): 1 µg/mL (≈ 1.08 µM) | MIC values (Candida albicans; with Formoterol 0.5 mM (2% DMSO), G-block 0%): 2 µg/mL (≈ 2.16 µM) | MIC values (Candida albicans; with Formoterol 0.5 mM (2% DMSO), G-block 2%): 2 µg/mL (≈ 2.16 µM) | MIC values (Candida albicans; with Formoterol 0.5 mM (2% DMSO), G-block 6%): 1 µg/mL (≈ 1.08 µM) | MIC values (Candida albicans; with Formoterol 0.5 mM (2% DMSO), G-block 10%): 0.5 µg/mL (≈ 0.54 µM) | MIC values (Candida albicans; with Ipratropium bromide 0.01 mM, G-block 0%): 4 µg/mL (≈ 4.32 µM) | MIC values (Candida albicans; with Ipratropium bromide 0.01 mM, G-block 2%): 2 µg/mL (≈ 2.16 µM) | MIC values (Candida albicans; with Ipratropium bromide 0.01 mM, G-block 6%): 1 µg/mL (≈ 1.08 µM) | MIC values (Candida albicans; with Ipratropium bromide 0.01 mM, G-block 10%): 0.25 µg/mL (≈ 0.27 µM) | MIC values (Candida albicans; with Ipratropium bromide 1 mM, G-block 0%): 4 µg/mL (≈ 4.32 µM) | MIC values (Candida albicans; with Ipratropium bromide 1 mM, G-block 2%): 2 µg/mL (≈ 2.16 µM) | MIC values (Candida albicans; with Ipratropium bromide 1 mM, G-block 6%): 0.5 µg/mL (≈ 0.54 µM) | MIC values (Candida albicans; with Ipratropium bromide 1 mM, G-block 10%): 0.25 µg/mL (≈ 0.27 µM) | MIC values (Candida albicans; with Salbutamol 0.01 mM, G-block 0%): 4 µg/mL (≈ 4.32 µM) | MIC values (Candida albicans; with Salbutamol 0.01 mM, G-block 2%): 2 µg/mL (≈ 2.16 µM) | MIC values (Candida albicans; with Salbutamol 0.01 mM, G-block 6%): 1 µg/mL (≈ 1.08 µM) | MIC values (Candida albicans; with Salbutamol 0.01 mM, G-block 10%): 0.25 µg/mL (≈ 0.27 µM) | MIC values (Candida albicans; with Salbutamol 1 mM, G-block 0%): 2 µg/mL (≈ 2.16 µM) | MIC values (Candida albicans; with Salbutamol 1 mM, G-block 2%): 2 µg/mL (≈ 2.16 µM) | MIC values (Candida albicans; with Salbutamol 1 mM, G-block 6%): 1 µg/mL (≈ 1.08 µM) | MIC values (Candida albicans; with Salbutamol 1 mM, G-block 10%): 0.25 µg/mL (≈ 0.27 µM) | Minimum Inhibitory Concentration (MIC) ([1]; M19, NaCl 0 mM): 6.4 µg/mL | Minimum Inhibitory Concentration (MIC) ([1]; M19, NaCl 30 mM): 3.2 µg/mL | Minimum Inhibitory Concentration (MIC) ([1]; M19, NaCl 50 mM): 1.6 µg/mL | Minimum Inhibitory Concentration (MIC) ([1]; M19, OligoG CF 5/20 0%): 6.4 µg/mL | Minimum Inhibitory Concentration (MIC) ([1]; M19, OligoG CF 5/20 2%): 1.6 µg/mL | Minimum Inhibitory Concentration (MIC) ([1]; M19, OligoG CF 5/20 6%): 0.8 µg/mL | Minimum Inhibitory Concentration (MIC) ([1]; M19, OligoG CF 5/20 10%): 0.4 µg/mL | reduction in MIC values ([1]; M19): 16 × | Minimum Inhibitory Concentration (MIC) ([1]; Mueller-Hinton, NaCl 0 mM): 6.4 µg/mL | Minimum Inhibitory Concentration (MIC) ([1]; Mueller-Hinton, NaCl 10 mM): 6.4 µg/mL | Minimum Inhibitory Concentration (MIC) ([1]; Mueller-Hinton, NaCl 30 mM): 6.4 µg/mL | Minimum Inhibitory Concentration (MIC) ([1]; Mueller-Hinton, NaCl 50 mM): 6.4 µg/mL | Minimum Inhibitory Concentration (MIC) ([1]; Mueller-Hinton, OligoG CF 5/20 0%): 3.2 µg/mL | Minimum Inhibitory Concentration (MIC) ([1]; Mueller-Hinton, OligoG CF 5/20 2%): 3.2 µg/mL | Minimum Inhibitory Concentration (MIC) ([1]; Mueller-Hinton, OligoG CF 5/20 6%): 0.8 µg/mL | Minimum Inhibitory Concentration (MIC) ([1]; Mueller-Hinton, OligoG CF 5/20 10%): 0.4 µg/mL | reduction in MIC values ([1]; Mueller-Hinton): 8 × | effect of addition of OligoG CF-5/20 on MIC values ([1]; both media tested (M19, Mueller-Hinton)): reduction in MIC values

— patent US20150126467A1, “USE OF ALGINATE OLIGOMERS TO ENHANCE THE EFFECTS OF ANTIFUNGAL AGENTS” (AlgiIPharma AS, priority 2011, published 2015)
